Measurements as given in patent publication US8754128B2, “Dioxoanthracene sulphonate derivatives” (Laboratoire Medidom SA, priority 2007, dated 2014).
In brackets after ≈: the same amount, converted by molar mass.

Columns and labels:
[1] = Solubility in water; assay type: physicochemical; conditions: for solubility in water (in words): water / aqueous solution; for solubility of test solutions for chondrocyte culture: rhein needed five minutes sonication
[2] = tested on: IL-1 β cytokine production by human normal and osteoarthritic (OA) chondrocytes; assay: In vitro IL-1β inhibition in LPS-stimulated human chondrocytes (ELISA); assay type: cell-based
Text: The activity of the compound of example 1, and of rhein in inhibiting the lipopolysaccharide (LPS) stimulated production of IL-1 β cytokine by human normal and osteoarthritic (OA) chondrocytes was studied.
Human cartilage was obtained during orthopaedic surgery for total hip prosthesis due to traumatic fracture in normal subjects or OA patients. Patients with OA were selected on the basis of the following criteria (1) bi-lateral OA, (2) diagnoses of moderate OA (grade I-III, Kellgren-Laurence), supported by radiology and pathology.
A suspension of isolated chondrocytes was prepared from cartilage specimens obtained from four OA patient and nine normal subjects. Specimens were obtained and maintained under aseptic conditions. The cartilage was cut into small fragments and incubated with 1 mg/ml clostridial collagenase in carbonate/bicarbonate buffer for 48 hours at 37° C. Once separated from the cartilage matrix, chondrocytes were centrifuged at 1500 RPM for five minutes. The separated chondrocytes, suspended in culture medium (DMEM supplemented with 10% SCF) were used for the experiment. Cell viability was evaluated by Trypan blue exclusion.
In vitro stimulation of chondrocytes with bacterial endotoxin (LPS) for the production of IL-1 β was carried out as follows: […]

[3] = tested on: colon and kidney cells; conditions: Comet assay, Müller et al. 1996; cited from earlier work

solubility in water (in words) [1]	solubility of test solutions for chondrocyte culture [1]	SMILES	also measured
practically insoluble in water	–	CC(=O)Oc1cccc2c1C(=O)c1c(OC(C)=O)cc(C(=O)O)cc1C2=O [diacerein]	–
–	good solubility	O=C(O)c1cc(O)c2c(c1)C(=O)c1ccc(S(=O)(=O)O)c(O)c1C2=O [Example 1, 6-sulfo-4,5-dihydroxy-9,10-dioxo-2-anthracene carboxylic acid]	solubility ([1]; water): 1200 µg/mL (≈ 3.29 mM); IL-1β inhibition activity compared with rhein (FIG. 3) ([2]; LPS-stimulated normal and OA chondrocytes, 48 hours, ELISA): significantly increased IL-1β inhibition activity compared with rhein; inhibition of IL-1β production (FIG. 4) ([2]; LPS-stimulated normal chondrocytes, dose-dependent): significant inhibition of IL-1β production
–	–	O=C1c2cccc(O)c2C(=O)c2c(O)cc(CO)cc21 [Aloe-emodin]	clastogenic effect [3]: clastogenic effect in colon and kidney cells
practically insoluble in water	solubility problems	O=C(O)c1cc(O)c2c(c1)C(=O)c1cccc(O)c1C2=O [rhein, 4,5-dihydroxy-9,10-dioxo-2-anthracene carboxylic acid]	–
